Reference: patent publication US20260217706A1, “HETEROCYCLIC COMPOUNDS, PREPARATION METHOD THEREFOR AND USE THEREOF” (GUANGZHOU YUFAN NANTU BIOTECHNOLOGIES CO., LTD, priority 2023, published 2026)

How the values were obtained:
[1] = molecular target: CBL-B protein (Homo sapiens, UniProt Q13191); assay: CBL-B binding experiment (Streptavidin-Tb cryptate / Ligand L1 displacement); details: 8 nM CBL-B protein, 25° C., 60 minutes; Ki=Relative IC50/2
Summary of the method: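 Compounds in a 10-point DMSO series met 8 nM CBL-B protein in HEPES pH 7.5/NaCl/Triton/TCEP/BSA buffer at 25° C. for 60 min. A further 60 min at room temperature preceded the luminescence read, normalised to no-protein and DMSO wells. Ki was taken as relative IC50 divided by 2.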

[2] = system: anti-CD3 activated human PBMCs; assay: Effect of compounds on the level of IL-2 secretion by anti-CD3 activated human PBMCs (IL-2 ELISA); type: cell-based; details: compound concentration at which fold change in IL-2 = 5; hPBMCs, CD3 antibody 2 μg/mL, 48 h, compound from 3 μM
Experimental: 2. Inoculate the resuspended cells into a 96-well cell culture plate at 200 ul/well of cell suspension, and incubate in a 37° C. cell incubator for 1 h;
3. Adjust the compound concentration with DMSO, starting at a final concentration of 3 μM, and perform a 3-fold dilution sequentially for 10 concentration gradients, with an additional DMSO control well set up; and
4. Adjust the CD3 antibody to an appropriate concentration to achieve a final concentration of 2 μg/mL, mix thoroughly, and incubate in a 37° C. cell incubator for 48h.
5. After 48 h, centrifuge at 1500 rpm for 5 min to collect the supernatant of the culture medium for the human IL-2 ELISA test.
The OD values obtained from the ELISA test are converted into the fold change (FC) in IL-2 concentration. […] The EC50 is calculated using GraphPad Prism. When the fold change=5, the corresponding compound concentration is CFC=5 (in nM).

CBL-B protein, sequence (Q13191 whole entry): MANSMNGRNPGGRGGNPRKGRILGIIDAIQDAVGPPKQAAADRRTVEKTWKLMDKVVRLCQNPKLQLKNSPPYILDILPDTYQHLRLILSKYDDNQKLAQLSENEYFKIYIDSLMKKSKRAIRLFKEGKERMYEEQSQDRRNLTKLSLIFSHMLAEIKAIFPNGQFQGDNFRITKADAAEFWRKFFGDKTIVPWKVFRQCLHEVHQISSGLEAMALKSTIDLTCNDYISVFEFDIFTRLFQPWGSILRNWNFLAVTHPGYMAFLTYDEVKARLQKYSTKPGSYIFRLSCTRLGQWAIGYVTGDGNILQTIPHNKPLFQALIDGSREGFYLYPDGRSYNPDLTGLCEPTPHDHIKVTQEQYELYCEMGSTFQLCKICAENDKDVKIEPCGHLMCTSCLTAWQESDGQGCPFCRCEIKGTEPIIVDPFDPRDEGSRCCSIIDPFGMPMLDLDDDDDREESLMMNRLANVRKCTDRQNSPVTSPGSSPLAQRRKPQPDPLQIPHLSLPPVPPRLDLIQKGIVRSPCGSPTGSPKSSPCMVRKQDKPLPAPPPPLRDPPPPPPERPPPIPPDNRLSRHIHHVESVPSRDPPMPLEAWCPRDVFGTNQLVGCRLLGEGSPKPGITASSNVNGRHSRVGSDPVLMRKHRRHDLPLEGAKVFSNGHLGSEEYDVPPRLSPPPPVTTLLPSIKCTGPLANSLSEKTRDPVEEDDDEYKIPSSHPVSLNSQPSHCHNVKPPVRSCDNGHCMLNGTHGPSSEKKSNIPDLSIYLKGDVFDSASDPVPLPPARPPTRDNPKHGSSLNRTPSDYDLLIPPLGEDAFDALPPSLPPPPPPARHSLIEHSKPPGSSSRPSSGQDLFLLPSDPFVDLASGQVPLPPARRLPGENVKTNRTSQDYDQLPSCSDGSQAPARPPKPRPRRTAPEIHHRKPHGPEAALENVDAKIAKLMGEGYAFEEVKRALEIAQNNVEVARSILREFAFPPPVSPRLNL

| SMILES | Ki [1] | IL-2 CFC=5/nM [2] |
| --- | --- | --- |
| C[C@H]1CCCN(Cc2cc3c(C4CC4)cn(-c4cccc(C5(Cc6nncn6C)CC(F)(F)C5)c4)c(=O)c3[nH]2)C1 [Compound T077, 4-cyclopropyl-6-[3-[3,3-difluoro-1-[(4-methyl-1,2,4-triazol-3-yl)methyl]cyclobutyl]phenyl]-2-[[(3S)-3-methyl-1-piperidyl]methyl]-1H-pyrrolo[2,3-c]pyridin-7-one] | < 50 nM | <500 nM |
| C[C@H]1CCCN(Cc2cc3c(C4CC4)cn(-c4cccc([C@]5(Cc6nncn6C)C[C@H](C)C5)c4)c(=O)c3[nH]2)C1 [Compound T037, 4-cyclopropyl-6-(3-((1s,3R)-3-methyl-1-((4-methyl-4H-1,2,4-triazol-3-yl)methyl)cyclobutyl)phenyl)-2-(((S)-3-methylpiperidin-1-yl)methyl)-1,6-dihydro-7H-pyrrolo[2,3-c]pyridin-7-one] | < 50 nM | <500 nM |
| CCN(Cc1cc2c(C(F)(F)F)cn(-c3cccc(C4(c5nncn5C)CCC4)c3)c(=O)c2[nH]1)CC(C)C [Compound T041, 2-[[ethyl(isobutyl)amino]methyl]-6-[3-[1-(4-methyl-1,2,4-triazol-3-yl)cyclobutyl]phenyl]-4-(trifluoromethyl)-1H-pyrrolo[2,3-c]pyridin-7-one] | < 50 nM | <500 nM |
| C[C@H]1CCCN(Cc2cc3c(C(F)(F)F)cn(-c4cccc([C@H](c5nncn5C)C5CCC5)c4)c(=O)c3[nH]2)C1 [Compound T060, 6-(3-((R)-cyclobutyl (4-methyl-4H-1,2,4-triazol-3-yl)methyl)phenyl)-2-(((S)-3-methylpiperidin-1-yl)methyl)-4-(trifluoromethyl)-1,6-dihydro-7H-pyrrolo[2,3-c]pyridin-7-one] | < 50 nM | <500 nM |
| Cn1cnnc1C1(c2cccc(-n3cc(C(F)(F)F)c4cc(CNCCOC5CCCC5)[nH]c4c3=O)c2)CCC1 [Compound T097, 2-[[2-(cyclopentoxy)ethylamino]methyl]-6-[3-[1-(4-methyl-1,2,4-triazol-3-yl)cyclobutyl]phenyl]-4-(trifluoromethyl)-1H-pyrrolo[2,3-c]pyridin-7-one] | < 50 nM | <500 nM |
| CCN(C)Cc1cc2c(C(F)(F)F)cn(-c3cccc(C4(c5nncn5C)CCC4)c3)c(=O)c2[nH]1 [Compound T002, 2-((ethyl(methyl)amino)methyl)-6-(3-(1-(4-methyl-4H-1,2,4-triazol-3-yl)cyclobutyl)phenyl)-4-(trifluoromethyl)-1,6-dihydro-7H-pyrrolo[2,3-c]pyridin-7-one] | < 50 nM | <500 nM |
| Cn1cnnc1[C@]1(c2cccc(-n3cc(C(F)(F)F)c4cc(CNC5(C)CCC5)[nH]c4c3=O)c2)C[C@H](C)C1 [Compound T035, 6-(3-((1s,3s)-3-methyl-1-(4-methyl-4H-1,2,4-triazol-3-yl)cyclobutyl)phenyl)-2-(((1-methylcyclobutyl)amino)methyl)-4-(trifluoromethyl)-1,6-dihydro-7H-pyrrolo[2,3-c]pyridin-7-one] | < 50 nM | <500 nM |
| Cn1cnnc1C1(c2cccc(-n3cc(C(F)(F)F)c4cc(CN5CCC[C@@H]6C[C@@H]65)[nH]c4c3=O)c2)CCC1 [Compound T027, 2-(((1 S,6R)-2-azabicyclo [4.1.0]heptan-2-yl)methyl)-6-(3-(1-(4-methyl-4H-1,2,4-triazol-3-yl)cyclobutyl)phenyl)-4-(trifluoromethyl)-1,6-dihydro-7H-pyrrolo[2,3-c]pyridin-7-one] | < 50 nM | <500 nM |
| CO[C@H]1C[C@@](c2cccc(-n3cc(C(F)(F)F)c4cc(CNC5(C)CCC5)[nH]c4c3=O)c2)(c2nncn2C)C1 [Compound T067, 6-(3-((1s,3s)-3-methoxy-1-(4-methyl-4H-1,2,4-triazol-3-yl)cyclobutyl)phenyl)-2-(((1-methylcyclobutyl)amino)methyl)-4-(trifluoromethyl)-1,6-dihydro-7H-pyrrolo[2,3-c]pyridin-7-one] | < 50 nM | <500 nM |
| C[C@H](NCc1cc2c(C(F)(F)F)cn(-c3cccc(C4(c5nncn5C)CCC4)c3)c(=O)c2[nH]1)C(C)(C)C [Compound T043, (S)-2-(((3,3-dimethylbutan-2-yl)amino)methyl)-6-(3-(1-(4-methyl-4H-1,2,4-triazol-3-yl)cyclobutyl)phenyl)-4-(trifluoromethyl)-1,6-dihydro-7H-pyrrolo[2,3-c]pyridin-7-one] | < 50 nM | <500 nM |

Second part, led by results:

| Ki [1] | SMILES | IL-2 CFC=5/nM [2] |
| --- | --- | --- |
| < 50 nM | CCCNCc1cc2c(C(F)(F)F)cn(-c3cccc(C4(c5nncn5C)CCC4)c3)c(=O)c2[nH]1 [Compound T160, 6-(3-(1-(4-methyl-4H-1,2,4-triazol-3-yl)cyclobutyl)phenyl)-2-((propylamino)methyl)-4-(trifluoromethyl)-1,6-dihydro-7H-pyrrolo[2,3-c]pyridin-7-one] | <500 nM |
| < 50 nM | C[C@H]1CCCN(Cc2cc3c(C(F)(F)F)cn(-c4cccc([C@]5(c6nncn6C)C[C@@H](OC(F)(F)F)C5)c4)c(=O)c3[nH]2)C1 [Compound T130, 6-(3-((1s,3R)-1-(4-methyl-4H-1,2,4-triazol-3-yl)-3-(trifluoromethoxy)cyclobutyl)phenyl)-2-(((S)-3-methylpiperidin-1-yl)methyl)-4-(trifluoromethyl)-1,6-dihydro-7H-pyrrolo[2,3-c]pyridin-7-one] | <500 nM |
| < 50 nM | CO[C@H]1C[C@](c2cccc(-n3cc(C(F)(F)F)c4cc(CN5CCCC(C(F)F)C5)[nH]c4c3=O)c2)(c2nncn2C)C1 (stereo partly shown) [Compound T156, 2-((3-(difluoromethyl)piperidin-1-yl)methyl)-6-(3-((1r,3r)-3-methoxy-1-(4-methyl-4H-1,2,4-triazol-3-yl)cyclobutyl)phenyl)-4-(trifluoromethyl)-1,6-dihydro-7H-pyrrolo[2,3-c]pyridin-7-one] | <500 nM |
| < 50 nM | CCN(Cc1cc2c(C(F)(F)F)cn(-c3cccc([C@]4(c5nncn5C)C[C@@H](C)C4)c3)c(=O)c2[nH]1)C(C)C [Compound T159, 2-((ethyl(isopropyl)amino)methyl)-6-(3-((1s,3s)-3-methyl-1-(4-methyl-4H-1,2,4-triazol-3-yl)cyclobutyl)phenyl)-4-(trifluoromethyl)-1,6-dihydro-7H-pyrrolo[2,3-c]pyridin-7-one] | <500 nM |
| < 50 nM | CO[C@H]1C[C@@](c2cccc(-n3cc(C(F)(F)F)c4cc(CN5CCC[C@H](C)C5)[nH]c4c3=O)c2)(c2nncn2C)C1 [Compound T134, 6-(3-((1s,3R)-3-methoxy-1-(4-methyl-4H-1,2,4-triazol-3-yl)cyclobutyl)phenyl)-2-(((S)-3-methylpiperidin-1-yl)methyl)-4-(trifluoromethyl)-1,6-dihydro-7H-pyrrolo[2,3-c]pyridin-7-one] | <500 nM |
| < 50 nM | CO[C@H]1C[C@@](c2cccc(-n3cc(C(F)(F)F)c4cc(CN5CCCC6(CC6)C5)[nH]c4c3=O)c2)(c2nncn2C)C1 [Compound T147, 2-((5-azaspiro[2.5]octan-5-yl)methyl)-6-(3-((1s,3s)-3-methoxy-1-(4-methyl-4H-1,2,4-triazol-3-yl)cyclobutyl)phenyl)-4-(trifluoromethyl)-1,6-dihydro-7H-pyrrolo[2,3-c]pyridin-7-one] | <500 nM |
| < 50 nM | CO[C@H]1C[C@](c2cccc(-n3cc(C(F)(F)F)c4cc(CNCCC5CC5)[nH]c4c3=O)c2)(c2nncn2C)C1 [Compound T154, 2-(((2-cyclopropylethyl)amino)methyl)-6-(3-((1r,3r)-3-methoxy-1-(4-methyl-4H-1,2,4-triazol-3-yl)cyclobutyl)phenyl)-4-(trifluoromethyl)-1,6-dihydro-7H-pyrrolo[2,3-c]pyridin-7-one] | <500 nM |
| < 50 nM | C[C@H]1CCCN(Cc2cc3c(C(F)(F)F)cn(-c4cccc([C@]5(c6nncn6C)C[C@H](OC(F)(F)F)C5)c4)c(=O)c3[nH]2)C1 [Compound T131, 6-(3-((1r,3S)-1-(4-methyl-4H-1,2,4-triazol-3-yl)-3-(trifluoromethoxy)cyclobutyl)phenyl)-2-(((S)-3-methylpiperidin-1-yl)methyl)-4-(trifluoromethyl)-1,6-dihydro-7H-pyrrolo[2,3-c]pyridin-7-one] | <500 nM |
| < 50 nM | C[C@H]1CCCN(Cc2cc3c(C(F)(F)F)cn(-c4cc(C#N)cc([C@]5(c6nncn6C)C[C@@H](C)C5)c4)c(=O)c3[nH]2)C1 [Compound T121, 3-((1s,3R)-3-methyl-1-(4-methyl-4H-1,2,4-triazol-3-yl)cyclobutyl)-5-(2-(((S)-3-methylpiperidin-1-yl)methyl)-7-oxo-4-(trifluoromethyl)-1,7-dihydro-6H-pyrrolo[2,3-c]pyridin-6-yl)benzonitrile] | <500 nM |
| < 50 nM | CC=C1CC(c2cccc(-n3cc(C(F)(F)F)c4cc(CN5CCC[C@H](C)C5)[nH]c4c3=O)c2)(c2nncn2C)C1 (stereo partly drawn) [Compound T085, 6-[3-[3-ethylidene-1-(4-methyl-1,2,4-triazol-3-yl)cyclobutyl]phenyl]-2-[[(3S)-3-methyl-1-piperidyl]methyl]-4-(trifluoromethyl)-1H-pyrrolo[2,3-c]pyridin-7-one] | <500 nM |
